Measurements: patent US10681909B2, “Herbicidal triazoles” (FMC Corporation, priority 2014, dated 2020)

Columns and labels:
[1] = test system: corn; experiment: Test A preemergence; format: in vivo, Zea mays; settings: Zea mays, pre-emergence, 240 h, 0 to 100 scale (0 no effect, 100 complete control); for Corn plant response rating (crop injury, 0 = no effect, 100 = complete kill) at 125 g/ha: 125 g ai/ha; for Corn plant response rating (crop injury, 0 = no effect, 100 = complete kill) at 500 g/ha: 500 g ai/ha, approx. 10 d
In short: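 Loam/sand soil mix; compound in non-phytotoxic solvent + surfactant. Pre: directed soil spray right after planting seed. Post: potted plants 2–10 cm, 1–2 leaf stage, sprayed with same formulation.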

[2] = test system: ryegrass, Italian; experiment: Test C preemergence; format: in vivo, Lolium multiflorum; settings: for Ryegrass, Italian plant response rating (0 to 100): Preemergence, visual rating after 13 to 15 d; for Plant response rating (scale of 0 to 100 where 0 is no effect and 100 is complete control): Ryegrass, Italian, preemergence
Description: (§1) Seeds of plant species selected from blackgrass (Alopecurus myosuroides), ryegrass, Italian (Italian ryegrass, Lolium multiflorum), wheat (winter wheat, Triticum aestivum), galium (catchweed bedstraw, Galium aparine), corn (Zea mays), crabgrass, large (large crabgrass, Digitaria sanguinalis), foxtail, giant, (giant foxtail, Setaria faberii), johnsongrass (Sorghum halepense), lambsquarters (Chenopodium album), morningglory (Ipomoea coccinea), nutsedge, yellow (yellow nutsedge, Cyperus esculentus), pigweed (Amaranthus retroflexus), ragweed (common ragweed, Ambrosia elatior), soybean (Glycine max), barnyardgrass (Echinochloa crus-galli), oilseed rape (Brassica napus), waterhemp (common waterhemp, Amaranthus rudis), and velvetleaf (Abutilon theophrasti) were planted into a blend of loam soil and sand and treated preemergence with test chemicals formulated in a non-phytotoxic solvent mixture which included a surfactant. At the same time, plants selected from these crop and weed species and also chickweed (common chickweed, Stellaria media), oat, wild (wild oat, Avena fatua), and kochia (Kochia scoparia), were planted in pots containing Sunshine Redi-Earth® planting medium comprising spaghnum peat moss, vermiculite, starter nutrients and dolomitic limestone and treated with postemergence applications of test chemicals formulated in the same manner. Plants ranged in height from 2 to 18 cm (1- to 4-leaf stage) for postemergence treatments. […] A dash (-) response means no test result.

[3] = test system: crabgrass, large; experiment: Test C preemergence; format: in vivo, Digitaria sanguinalis; settings: for Plant response rating (scale of 0 to 100 where 0 is no effect and 100 is complete control): Crabgrass, Large, preemergence; for Crabgrass, Large plant response rating (0 to 100): Preemergence, visual rating after 13 to 15 d
Description: as §1

[4] = test system: foxtail, giant; experiment: Test C preemergence; format: in vivo, Setaria faberii; settings: for Plant response rating (scale of 0 to 100 where 0 is no effect and 100 is complete control): Foxtail, Giant, preemergence; for Foxtail, Giant plant response rating (0 to 100): Preemergence, visual rating after 13 to 15 d
Description: as §1

[5] = test system: lambsquarters; experiment: Test C preemergence; format: in vivo, Chenopodium album; settings: for Plant response rating (scale of 0 to 100 where 0 is no effect and 100 is complete control): Lambsquarters, preemergence; for Lambsquarters plant response rating (0 to 100): Preemergence, visual rating after 13 to 15 d
Description: as §1

SMILES	Corn plant response rating (crop injury, 0 = no effect, 100 = complete kill) at 125 g/ha [1] [%]	Corn plant response rating (crop injury, 0 = no effect, 100 = complete kill) at 500 g/ha [1] [%]	Ryegrass, Italian plant response rating (0 to 100) ([2]; 31 g ai/ha)	Ryegrass, Italian plant response rating (0 to 100) ([2]; 62 g ai/ha)	Plant response rating (scale of 0 to 100 where 0 is no effect and 100 is complete control) ([2]; 125 g ai/ha)	Plant response rating (scale of 0 to 100 where 0 is no effect and 100 is complete control) ([2]; 250 g ai/ha)	Plant response rating (scale of 0 to 100 where 0 is no effect and 100 is complete control) ([3]; 125 g ai/ha)	Plant response rating (scale of 0 to 100 where 0 is no effect and 100 is complete control) ([3]; 250 g ai/ha)	Crabgrass, Large plant response rating (0 to 100) ([3]; 31 g ai/ha)	Crabgrass, Large plant response rating (0 to 100) ([3]; 62 g ai/ha)	Plant response rating (scale of 0 to 100 where 0 is no effect and 100 is complete control) ([4]; 125 g ai/ha)	Plant response rating (scale of 0 to 100 where 0 is no effect and 100 is complete control) ([4]; 250 g ai/ha)	Foxtail, Giant plant response rating (0 to 100) ([4]; 31 g ai/ha)	Foxtail, Giant plant response rating (0 to 100) ([4]; 62 g ai/ha)	Plant response rating (scale of 0 to 100 where 0 is no effect and 100 is complete control) ([5]; 125 g ai/ha)	Plant response rating (scale of 0 to 100 where 0 is no effect and 100 is complete control) ([5]; 250 g ai/ha)	Lambsquarters plant response rating (0 to 100) ([5]; 31 g ai/ha)	Lambsquarters plant response rating (0 to 100) ([5]; 62 g ai/ha)
Cn1nc(-c2ccc(F)cc2)nc1Oc1cccc(C(F)(F)F)c1 [Compound 5, 3-(4-fluorophenyl)-1-methyl-5-[3-(trifluoromethyl)phenoxy]-1H-1,2,4-triazole]	0	0	–	–	–	–	–	–	–	–	–	–	–	–	–	–	–	–
CCCc1nc(-c2ccc(F)cc2)nn1Cc1ccnc(C(F)(F)F)c1 [Compound 6, 4-[[3-(4-fluorophenyl)-5-propyl-1H-1,2,4-triazol-1-yl]methyl]-2-(trifluoromethyl)pyridine]	20	30	30	70	80	100	100	100	100	100	100	100	100	100	98	98	98	98
COc1nc(-c2ccc(F)cc2)nn1Cc1ccnc(C(F)(F)F)c1 [Compound 9, 4-[[3-(4-fluorophenyl)-5-methoxy-1H-1,2,4-triazol-1-yl]methyl]-2-(trifluoromethyl)pyridine]	0	40	5	25	65	85	100	100	95	100	100	100	80	100	98	98	70	85
Cn1nc(-c2ccc(F)cc2)nc1C(O)c1ccnc(C(F)(F)F)c1 (stereo not drawn) [Compound 14, α-[3-(4-fluorophenyl)-1-methyl-1H-1,2,4-triazol-5-yl]-2-(trifluoromethyl)-4-pyridinemethanol]	0	0	–	–	–	–	–	–	–	–	–	–	–	–	–	–	–	–
CCn1nc(-c2ccc(F)cc2)nc1C(O)c1ccnc(C(F)(F)F)c1 (stereo not drawn) [Compound 15, α-[1-Ethyl-3-(4-fluorophenyl)-1H-1,2,4-triazol-5-yl]-2-(trifluoromethyl)-4-pyridinemethanol]	0	0	–	–	–	–	–	–	–	–	–	–	–	–	–	–	–	–
CCCn1nc(-c2ccc(F)cc2)nc1Cc1ccnc(C(F)(F)F)c1 [Compound 17, 4-[[3-(4-fluorophenyl)-1-propyl-1H-1,2,4-triazol-5-yl]methyl]-2-(trifluoromethyl)pyridine]	30	40	–	–	–	–	–	–	–	–	–	–	–	–	–	–	–	–
CCn1nc(-c2ccc(F)cc2)nc1C(=O)c1ccnc(C(F)(F)F)c1 [Compound 19, [1-ethyl-3-(4-fluorophenyl)-1H-1,2,4-triazol-5-yl][2-(trifluoromethyl)-4-pyridinyl]methanone]	0	0	–	–	–	–	–	–	–	–	–	–	–	–	–	–	–	–
CS(=O)(=O)c1nc(-c2ccc(F)cc2)nn1Cc1ccnc(C(F)(F)F)c1 [Compound 29, 4-[[3-(4-fluorophenyl)-5-(methylsulfonyl)-1H-1,2,4-triazole-1-yl]methyl]-2-(trifluoromethyl)pyridine]	0	0	–	–	–	–	–	–	–	–	–	–	–	–	–	–	–	–
COc1nc(-c2ccccc2)nn1Cc1ccnc(C(F)(F)F)c1 [Compound 32]	–	–	0	0	0	10	100	98	65	90	85	100	5	70	80	90	60	60
